In US11224223B2, “Feeding deterrence of pests such as Hemiptera, Lepidoptera and Coleoptera” (BEDOUKIAN RESEARCH, INC., priority 2012, dated 2022):

Experiments:
Format in all cases: in vivo
granary weevils = test: Granary weevil test on treated wheat kernels; conditions: 5% in isopropyl alcohol, 3 week period
Experimental: Ten replicates of 30 kernels of wheat were immersed into the test compound and allowed to dry for 24 hours. The grains were then transferred to a test container, and 10 granary weevils were released. Test containers were secured and left for a 3 week period. At the end of this time, the wheat grains were examined for developing larvae and damage by larvae. […] Ten additional replicates treated with isopropyl alcohol were prepared to serve as controls.

saw tooth grain beetles = test: Repellency of test compounds on grain beetles, treated corn kernels; conditions: 5% in isopropyl alcohol, 3 week period
Experimental: Ten replicates of 30 kernels of corn are immersed into the test compound and allowed to dry for 24 hours. The kernels are then transferred to a test container, and 10 saw tooth grain beetles are released. Test containers are secured and left for a 3 week period. At the end of this time, the […] grains are examined for feeding damage. […] Ten additional replicates treated with isopropyl alcohol are prepared to serve as controls.

sharpshooters = test: Leafhopper repellency on citrus choice assays; conditions: 3% compound; citrus seedlings; 100 sharpshooters per cage; control 50/50
Excerpt: (§1) Leafhopper Repellency on Citrus Choice Assays Citrus seedlings are sprayed with either a 3% solution of repellent chemical in a 5%:95% ETOH:Water or only 5%:95% ETOH:Water as a control. Two seedlings are placed in a screen cage, either a treatment vs control tree or a control vs control tree. 100 sharpshooters are released into each cage. The number of sharpshooters choosing each leaf is counted for both choice tests. The number of sharpshooters choosing each treatment is compared to the control to determine if there is a repellent effect.

Aphis gossypii = test: Melon aphid repellency on leaf choice assays; conditions: 3% compound in a Triton X:Water solution; n=100; control 50/50
Excerpt: Melon Aphid Repellency on Leaf Choice Assays Aphis gossypii are maintained on squash plants. Individual aphids (n=100) are given the choice between leaves with and without repellent treatments. A separate group of aphids are given a choice between untreated vs. untreated leaves as a control. The number of aphids choosing each leaf is counted both choice tests. The number of aphids choosing each treatment is compared to the control to determine the repellent effect.

Plodia interpunctella = test: Feeding repellent assay for Indian meal moth larva on treated rice; conditions: 10% compound in a 5% Ethanol:95% water solution, third instar larvae, 1 week
Experimental: (§2) Feeding Repellent Assay for Indian Meal Moth Larva One gram of rice is weighed and treated with 2% by weight of each test chemical or ethanol as a control for each treatment and replicate. The grains are allowed to dry and then weighed again. Treated or control rice grains are placed in a petri dish. Third instar larvae are starved for 8 h and gently introduced into the center of each compartment. 20 larva are screened per treatment, and each experiment is repeated three times. The weight of rice grains is measured again after 1 week. The selective antifeeding rate (%) formula is [(C−T)/(C+T)]×100, and the non-selective antifeeding rate (%) formula is [(C−T)/C)]×100, where C and T are the areas consumed by the control and treated leaf disks, respectively.

Sitostroga cerealella = test: Feeding repellent assay for Angoumois larva on treated rice; conditions: 10% compound in a 5% Ethanol:95% water solution, third instar larvae, 1 week
Experimental: Feeding Repellent Assay for Angoumois Larva
as §2, with “One” for “Feeding Repellent Assay for Indian Meal Moth Larva One”

psyllids = test: Psyllid repellency on potato choice assays; conditions: 3% compound; potato plants; 100 psyllids per cage; control 50/50
Excerpt: Psyllid Repellency on Potato Choice Assays
as §1, with “Potato plants” for “Leafhopper Repellency on Citrus Choice Assays Citrus seedlings”, “plants” for “seedlings”, “tree,” for “tree.”, “psyllids” for “sharpshooters”

[1] = system: Leptinotarsa decemlineata-Colorado Potatoe Beetles; test: Choice feeding assay on potato leaf disks; conditions: 3% compound, larvae, 24 h
Experimental: For choice feeding assays, 3% alcohol solutions of the tested compounds are prepared. Disks (4.0 cm in diameter) are cut from potato leaves and are dipped in the test solutions or alcohol alone as a control. After the complete evaporation of the solvent, the disks are offered to 10 larvae. Control and treated disks are placed at alternate corners in Petri dishes (150 by 20 mm) lined with moistened filter paper (choice test). All dishes are placed in an incubator. Four replicates and 40 larva are used for each chemical. In each replicate, the insects are allowed to feed ad libitum for 24 h at 24 C under a 16:8 (L:D) photoperiod. After 24 h, the remaining uneaten area of each potato leaf disk is measured using a scanner and software. The selective antifeeding rate (%) formula is [(C−T)/(C+T)]×100, and the non-selective antifeeding rate (%) formula is [(C−T)/C)]×100, where C and T are the areas consumed by the control and treated leaf disks, respectively.

Codling Moth larvae = test: Repellency as feeding deterrence and mortality in Codling Moth larvae on treated media; conditions: compound at 3.5% in a 57% Ethanol:43% water solution; for Repellency at 24 hours: first instar larva, control 8%
Experimental: Another test was designed to measure the repellency as feeding deterrence in Codling Moth larvae. The treatment was applied to the surface of a proprietary laboratory media in a tray with wells for each compound. The media was allowed to dry for 30-60 minutes so that larvae were not exposed to it as a liquid. One first instar codling moth larva was then placed on the treated media. The cover film was placed on the tray to prevent escapes. Ten additional replicates treated with a 57% ethanol solution were prepared to serve as controls. […] After the 24 hour reading, the larvae were extracted from the media to record any mortality.
Mortality observations were also made for the above protocol. The control was the 57% ethanol:43% water solution.

Dermestid spp. = test: Dermestid beetle feeding damage on silk fabric; conditions: 3% compound; undyed silk disks; late instar larvae; 1 week
Experimental: Dermestid Beetle Feeding Damage on Silk Fabric
For feeding assays, 3% alcohol solutions of the tested compounds are prepared. Disks (4.0 cm in diameter) of undyed silk fabric are dipped in the test solutions or alcohol alone as a control. After the complete evaporation of the solvent, the disks are offered to 10 late instar larvae. All dishes are placed in an incubator. Four replicates are used for each chemical. After 1 week, the remaining uneaten area of each silk disk is measured using a scanner and software. The selective antifeeding rate (%) formula is [(C−T)/(C+T)]×100, and the non-selective antifeeding rate (%) formula is [(C−T)/C)]×100, where C and T are the areas consumed by the control and treated silk disks, respectively.

Row | SMILES | Increased Repellency vs. Control Repellency (granary weevils) | Increased Repellency vs. Control Repellency (saw tooth grain beetles) | Number of Psyllids Choosing each Treatment: Treated (sharpshooters) | Number of Psyllids Choosing each Treatment: Untreated (sharpshooters) | Number of Aphids Choosing each Treatment: Treated (Aphis gossypii) | Number of Aphids Choosing each Treatment: Untreated (Aphis gossypii) | % Antifeedent Activity (Plodia interpunctella) | % Antifeedent Activity (Sitostroga cerealella) | Number of Psyllids Choosing each Treatment: Treated (psyllids) | Number of Psyllids Choosing each Treatment: Untreated (psyllids) | % Repellency [1] | Increased Mortality over Control Mortality at 24 hours (Codling Moth larvae) | Repellency at 24 hours (Codling Moth larvae) | % Repellency (Dermestid spp.)
1 | CC/C(C)=C/CC/C(C)=C/CC1CCCC1=O (stereo not shown) [Methyl Apritone] | 11% | 10% | 30 | 70 | 30 | 70 | 70% | 70% | 30 | 70 | 15% | 95% | 100% | 15%
2 | CCCCCC1C(=O)CCC1CC(=O)OCCC (stereo not shown) [Propyl Dihydrojasmonate] | 8% | 10% | 30 | 70 | 30 | 70 | 60% | 60% | 30 | 70 | 15% | 18% | 59% | 15%
